{"source": "patent US12478640B2", "about": "“Inhalation of nitric oxide for treating respiratory diseases” (BEYOND AIR LTD, priority 2012, dated 2025)", "key": {"[1]": {"experiment": "phase I safety study in healthy adults: adverse events and vital signs", "format": "in vivo, human", "details": "160 ppm gNO 30 min, 5 times a day, 5 days", "source_text": "(§1) Cohort: 10 healthy adult volunteer subjects (5 males, 5 females), aged 20 to 62 years, were enrolled in the study after screening their medical history, a physical examination, pulmonary function tests and blood values. Exclusion criteria included individuals less than 19 years of age, pregnant females and unwilling to practice birth control during the study, diagnosed with pulmonary disease, epistaxis, hemoptysis, methemoglobinemia, organ transplant recipient or receiving antibiotic therapy.\n(§2) Regimen and post-treatment: After obtaining informed consent, treatment was initiated within 5 days of enrollment. […] Subject safety was determined by monitoring vital signs, methemoglobin levels, lung function, blood chemistry, hematology, prothrombin time, inflammatory cytokine/chemokines levels and endothelial activation. […]\n(§3) General medical examinations were performed by a pulmonary physician on screening and on days 8, 12 and 26 to obtain oxygenation and vital sign measurements. […] Oxygenation was measured with a pulse oximeter (Rad 57, Masimo Corporation, USA) which was used according to manufacturer's guidelines to measure functional oxygen saturation of arterial hemoglobin (SPO2) and heart rate. These parameters were measured continuously during every gNO administration and for 3.5 hours after the first treatment of the day. […]"}, "[2]": {"experiment": "phase I safety study: methemoglobin (SpMet) by pulse oximeter", "format": "in vivo, human", "source_text": "as §1\n(§4) Regimen and post-treatment: After obtaining informed consent, treatment was initiated within 5 days of enrollment. Subjects were housed in a hospital ward and received 160 ppm gNO for 30 minutes every four hours (Q4h), five times a day, for five consecutive days by inhalation. Subjects returned for follow-up evaluations 3, 7 and 21 days after the final gNO administration. Subject safety was determined by monitoring vital signs, methemoglobin levels, lung function, blood chemistry, hematology, prothrombin time, inflammatory cytokine/chemokines levels and endothelial activation. These parameters were compared to baseline and at various time-points during and after gNO administration.\nThe levels of gNO, NO2, O2 and methemoglobin were monitored during the administration of gNO. The target gas mixture was 160 ppm gNO with a nitrogen dioxide (NO2) level of less than 5 ppm and an oxygen (O2) level ranging from 21% to 25%. Inspiratory NO, NO2 and O2 levels were continuously monitored by sampling from the mouthpiece sample port located about 6 millimeters from the mouth of the subject with an AeroNOx (Pulmonox, AB, Canada) NO, NO2 and O2 electrochemical analyzer. Delivery safety was determined by the number of occasions that NO2 exceeded 5 ppm, gNO exceeding 10% variation and O2 dropping below 20% during gNO administration. A commercially available noninvasive pulse oximeter (Rad 57, Masimo Corporation, USA) was used to measure saturation levels at the periphery of methemoglobin (SpMet).\nThese parameters were measured continuously during every gNO administration course and for 3.5 hours after the first treatment of the day. Daily serum samples were collected and frozen at −80° C. and the serum […] level was measured using the Griess reagent."}, "[3]": {"experiment": "phase I safety study: oxygen saturation (SpO2) by pulse oximeter", "format": "in vivo, human", "source_text": "as §1, §2, §3"}, "[4]": {"experiment": "phase I safety study: pulmonary function tests", "format": "in vivo, human", "source_text": "as §1, §4\nSubjects underwent full pulmonary function tests (PFT), including lung diffusing capacity (DLCO) by a trained technician utilizing a calibrated pulmonary function system (Jaeger MasterScreen, VIASYS Healthcare, USA) on screening and days 2, 8, 12 and 26. Spirometry test (Microloop by Micro Medical, England) was performed on days 1, 3 and 4. Effect of gNO on lung function and DLCO was determined by changes from baseline, treatment days and follow up days."}, "[5]": {"experiment": "phase I safety study: plasma cytokines, cytometric bead array", "format": "in vivo, human", "details": "160 ppm gNO inhalation vs baseline", "source_text": "as §1, §4\n(§5) Hematological assessment included a complete blood count and differentials (hemoglobin, hematocrit, red blood cell count, white blood cell count, white blood cell differential, and platelet count) were obtained in order to monitor blood chemistry, hematology and inflammation measurements. The blood chemistry profile included serum creatinine, and liver function tests such as aspartate aminotransferase (AST) serum glutamic oxaloacetic transaminase (SGOT), alkaline phosphatase, and gamma-glutamyl transferase (GGT). The effect of gNO on coagulation was determined by the prothrombin time (PT) and its derived measures of prothrombin ratio (PR) and international normalized ratio (INR). Heparinized plasma was collected at baseline and on days 1, 2, 4, and 5 of gNO administration, and on follow-up days 3, 7 and 21 and frozen at −80° C. Plasma cytokine levels were assessed using the human inflammation cytokine bead array kit (BD Bioscience, Canada). Plasma levels of angiopoietin Ang-1 and Ang-2 were determined by ELISA (R&D Systems, USA).\nFIGS. 6A-F present blood levels of various cytokines before and after inhalation of 160 ppm gaseous nitric oxide by 10 healthy human individuals, as measured from blood samples collected within 7 days prior to gNO administration, each day during the treatment and 8, 12 and 26 days thereafter, wherein FIG. 6A presents the plasma levels of tumor necrosis factor (TNF)α, interleukin (IL)-1β data is presented in FIG. 6B, IL-6 in FIG. 6C, IL-8 in FIG. 6D, IL-10 in FIG. 6E and IL-12p70 in FIG. 6F, as determined by a cytometric bead array while statistical differences are compared by repeated measures ANOVA with Bonferroni post test for parametric data (IL-6, IL-8, IL-10, IL-12p70), or Friedman test with Dunn's post test for non-parametric data (TNF and IL-1b)."}, "[6]": {"experiment": "phase I safety study: plasma angiopoietins Ang-1 and Ang-2", "format": "in vivo, human", "details": "160 ppm gNO inhalation vs baseline", "source_text": "as §1, §4\nas §5, with “Heparinized plasma was collected at baseline and on days 1, 2, 4, and 5 of gNO administration, and on follow-up days 3, 7 and 21 and frozen at −80° C.” left out, “USA). […]” for “USA).”"}, "variety of microbes": {"test_system": "variety of microbes", "details": "200 ppm gNO, cited from earlier work"}, "S. aureus": {"test_system": "S. aureus", "details": "solid media, cited from earlier work"}, "P. aeruginosa": {"test_system": "P. aeruginosa", "details": "solid media, cited from earlier work"}, "[7]": {"test_system": "influenza A/victoria/H3N2", "details": "160 ppm gNO, cited from earlier work"}, "[8]": {"test_system": "highly pathogenic Avian Influenza H7N3", "details": "cited from earlier work"}, "[9]": {"details": "healthy humans, cited from earlier work"}, "[10]": {"details": "cited from earlier work"}, "[11]": {"details": "gNO concentrations below 200 ppm; 6 hours/day for 28 days; rats; cited from earlier work"}, "[12]": {"test_system": "five planktonic species of methicillin resistant S. aureus (MRSA)", "details": "1,600 ppm hours of gNO; all five strains; cited from earlier work"}, "[13]": {"test_system": "Pseudomonas aeruginosa pneumonia", "details": "160 ppm gNO, intermittent 30 minute exposures; rat; cited from earlier work"}, "[14]": {"test_system": "bovine respiratory disease", "details": "intermittent gNO inhalation; cattle; cited from earlier work"}, "[15]": {"test_system": "chronic, non-healing wound", "details": "topical 200 ppm gNO; within the first three days; cited from earlier work"}, "[16]": {"details": "during the course of the study vs baseline"}, "[17]": {"details": "gNO greater than 120 ppm, vs medical air"}}, "note": "Like-named read-outs stand apart in the source and are kept apart here."}
{"compound": "[N]=O", "note": "[gNO, nitric oxide]", "values": [{"measurement": "tolerability of treatments", "setting": "[1]; 10 healthy adults, 250 administrations", "value": "well tolerated"}, {"measurement": "minor adverse events reported", "setting": "[1]; arm bruising from blood draws (1), numbing of tongue (2)", "value": "Three minor adverse events"}, {"measurement": "follow-up SpMet", "setting": "[2]; 3, 7 and 21 days after final exposure", "value": "did not show any residual increase in SpMet"}, {"measurement": "all 930 recorded methemoglobin percent levels (SpMet)", "setting": "[2]; 160 ppm gNO 30 min, 5 times a day, 5 days", "value": "< 5", "unit": "%"}, {"measurement": "SpMet increase between pretreatment and post treatment", "setting": "[2]; 160 ppm gNO 30 min, p<0.001", "value": "about 1%"}, {"measurement": "time for SpMet to return to baseline", "setting": "[2]; after 160 ppm gNO 30 min, prior to next administration", "value": 3.5, "unit": "h"}, {"measurement": "highest SpMet", "setting": "[2]; at the end of the 30 minutes treatment, 160 ppm gNO", "value": 2.5, "unit": "%"}, {"measurement": "accumulation of SpMet with repeated treatments", "setting": "[2]; five daily treatments for five consecutive days", "value": "no accumulative or lingering effect"}, {"measurement": "SpMet level of subjects undergoing the method", "setting": "[2]; general statement referring to the Examples", "value": "≤ 1", "unit": "%"}, {"measurement": "average increase of SpMet", "setting": "[2]; single 30 minutes treatment course, 160 ppm gNO, baseline 0.16 percent", "value": 0.9, "unit": "%"}, {"measurement": "SpO2 change between pretreatment and post treatment", "setting": "[3]; 160 ppm gNO, not significant statistically nor clinically", "value": "decreased slightly"}, {"measurement": "hypoxemia (less than 85% SpO2)", "setting": "[3]; during or after 160 ppm gNO administration", "value": "No sudden incidences of hypoxemia"}, {"measurement": "pulmonary function tests", "setting": "[4]; during and after 160 ppm gNO treatments", "value": "did not reveal any abnormalities"}, {"measurement": "FEV1", "setting": "[4]; [16]", "value": "did not differ from baseline"}, {"measurement": "maximum mid-expiratory flow (MMEF)", "setting": "[4]; [16]", "value": "did not differ from baseline"}, {"measurement": "plasma IL-1b level", "setting": "[5]", "value": "unaffected"}, {"measurement": "plasma IL-6 level", "setting": "[5]", "value": "unaffected"}, {"measurement": "plasma IL-8 level", "setting": "[5]", "value": "unaffected"}, {"measurement": "plasma IL-10 level", "setting": "[5]", "value": "unaffected"}, {"measurement": "plasma IL-12p70 level", "setting": "[5]", "value": "unaffected"}, {"measurement": "plasma TNF level", "setting": "[5]", "value": "unaffected"}, {"measurement": "Ang-2/Ang-1 ratio", "setting": "[6]", "value": "not affected"}, {"measurement": "plasma Ang-1", "setting": "[6]", "value": "unaffected"}, {"measurement": "plasma Ang-2", "setting": "[6]", "value": "not affected"}, {"measurement": "bactericidal effect", "setting": "variety of microbes; all microorganisms tested", "value": "complete bactericidal effect"}, {"measurement": "reduction in CFU/mL", "setting": "variety of microbes; every bacteria challenged", "value": "≥ 3", "unit": "log10"}, {"measurement": "survival (downward bactericidal trend)", "setting": "S. aureus; 50-160 ppm gNO", "value": "5-10%"}, {"measurement": "reduction of colony formation", "setting": "S. aureus; [17]", "value": "greater than 90%"}, {"measurement": "survival (downward bactericidal trend)", "setting": "P. aeruginosa; 50-160 ppm gNO", "value": "5-10%"}, {"measurement": "reduction of colony formation", "setting": "P. aeruginosa; [17]", "value": "greater than 90%"}, {"measurement": "infectivity of virions", "setting": "[7]; MDCK cells", "value": "reducing the infectivity"}, {"measurement": "anti-viral effect, intermittent vs single exposure", "setting": "[7]; one 30 minute dose vs three 30 minute treatments Q4h", "value": "more evident in the intermittent form of exposure"}, {"measurement": "infectivity of virions", "setting": "[8]", "value": "reducing the infectivity"}, {"measurement": "MetHb level", "setting": "[9]; inhalation of 128 ppm for 3 hours", "value": "> 5", "unit": "%"}, {"measurement": "MetHb level", "setting": "[9]; inhalation of 512 ppm for 55 minutes", "value": "> 5", "unit": "%"}, {"measurement": "mortality", "setting": "[10]; 300 ppm gNO, first 1-2 days, group of 10 rats", "value": "Six of the animals treated with 300 ppm gNO died"}, {"measurement": "mortality", "setting": "[10]; 400 ppm gNO, first day of exposure, groups of 10 rats", "value": "all of the animals died"}, {"measurement": "mortality", "setting": "[10]; 500 ppm gNO, first day of exposure, groups of 10 rats", "value": "all of the animals died"}, {"measurement": "deaths", "setting": "[11]", "value": "No deaths occurred"}, {"measurement": "population of planktonic MRSA strains", "setting": "[12]", "value": "reduction in the population"}, {"measurement": "leukocyte infiltration", "setting": "[13]", "value": "effective to reduce"}, {"measurement": "pulmonary bioburden", "setting": "[13]", "value": "effective to reduce"}, {"measurement": "clinical symptoms of bovine respiratory disease", "setting": "[14]", "value": "decrease the clinical symptoms"}, {"measurement": "biofilm of the wound", "setting": "[15]", "value": "no longer visibly present"}]}
